Measured values from patent US6608111B1, “Method for treating or preventing prostatic conditions” (Southern Illinois University Office of Research, …, priority 1998, dated 2003).

What was measured:
[1] = system: male and female Wistar rats; experiment: Experiment 2: chronic treatment of male and female rats, 5-6 weeks; format: in vivo, rat; details: for Food intake: n = 5
Protocol: Twenty-five male and 25 female Wistar rats, 7-8 weeks of age, were randomly assigned to groups of five animals, respectively, for treatment with vehicle only (V), estradiol (E), (±)-Z-BDDA, (+)-Z-BDDA, or (−)-Z-BDDA. Each animal in group V received a daily 0.1 cc injection of a 10% ethanol-90% olive oil solution; the other treatments received their respective compound as a daily 0.1 cc injection, e.g., 2.5 μg of compound/g of body weight, in a 10% ethanol-90% olive oil solution. A temperature of 21° C. and an artificial 12-h light-dark cycle were maintained in the animal room. All animals were maintained on standard chow in powdered form, the males for five weeks and the females for six weeks, then sacrificed after an overnight fast under i.p. pentobarbital anesthesia (50 mg/kg). Animal weight and food intake were measured weekly during the study and subsequent FER values were determined. During sacrifice, blood was collected (via cardiac puncture) for glucose, luteinizing hormone, prolactin and testosterone measurements. The amounts of luteinizing hormone, prolactin and testosterone were measured to help elucidate the target tissue of the respective compounds in male and female rats. Immediately following sacrifice the fat pads and reproductive organs were removed and weighed.
Experiments 1 and 2 employed a randomized design. All data were analyzed by one-way analysis of variance (ANOVA,)and post-hoc comparisons were made with Tukey pairwise comparisons test. Significance was confirmed at p≦0.05 (SYSTAT 7.0, SPSS INC., 1997), and all values are reported as means±standard error of the mean.

[2] = system: dialyzed LDL; experiment: Oxidized LDL lag time assay (antioxidant capacity); design: species or system human; details: 3 μM Cu2SO4, drugs at 10^−4, 10^−5, 10^−6, and 10^−7 M
Protocol: Experiments were carried out on dialyzed LDL collected from four fasted persons. The LDL was used within 10 days of dialysis. The oxidizing agent was 3 μM […]; phosphate buffered saline was used to control pH, and all drugs were dissolved in ethanol; final concentrations of each drug in the assays were 10^−4, 10^−5, 10^−6, and 10^−7 M. The combined results are shown in FIG. 6.

[3] = system: male Sprague-Dawley rats; experiment: Example 4: effects on prostate and testis of male rats, 6 weeks; format: in vivo, rat; details: for Prostate Weight as % Body Weight / Seminal Vesicle Weight as % Body Weight / Testis Weight as % Body Weight / Body Weight (g): 0.1 ug/g of body weight once a day, mean ± SEM; for Body Weight (g): n = 10
Protocol: Sixty male Sprague-Dawley rats, 7-8 weeks of age, were randomly assigned to groups of ten animals. Each group was randomly assigned to one of six treatments: Vehicle control (C), Estradiol-17β(E), (−)-Z-BDDA, (+)-Z-BDDA, (−)-HAA, and (+)-HAA. The compounds were all administered at a dose of 0.1 μg/g of body weight in 0.1 cc once a day for 6 weeks. The estrogenic compounds were dissolved in 10% ethanol and 90% olive oil vehicle. A temperature of 21° C. and an artificial 12 h light-dark cycle were maintained in the animal room. All animals were maintained on standard chow in powdered form for six weeks, and then sacrificed after an overnight fast under i.p. pentobarbitol anesthesia (50 mg/kg). Animal weight was measured weekly during the study. During sacrifice, blood was collected via cardiac puncture. Immediately following sacrifice, the fat pads, livers, pituitaries, testes, seminal vesicles, and prostate were removed and weighed, and snap frozen in liquid nitrogen. Prostates and one testis from 2-3 animals in each treatment group were fixed in 10% formalin for histological examination. These tissues were fixed overnight, blocked in paraffin, sectioned at 4 μm, stained with Hematoxylin and Eodsin, cover slipped, and examined microscopically. Quantitative results were subjected to an analysis of variance and means separated by a Tukey's Test (SYSTAT, Chicago, Ill.).

[4] = system: primary porcine granulosa cells; experiment: In situ apoptosis assay in primary porcine granulosa cells; format: cell-based; details: 24 hr treatment, 0.1, 1 and 10 μM combined, serum-free MEM; controls 63.4% / 68.4%
Protocol: Porcine ovaries were obtained from local packing plants and transported to the laboratory on ice-cold Hank's balanced salt solution (HBSS). Each of the follicles was aspirated with an insulin syringe, and the follicular fluid was centrifuged at 3000 rpm and 4° C. for 15 min. The supernatant was poured off and the cells were washed in 5 mls of cold HBSS and centrifuged for another 10 min. The cells were again resuspended in HBSS, and the number of viable cells counted under the microscope using a hematocytometer. Once the number of cells was determined, the cells were centrifuged again for 10 min. and resuspended in the appropriate volume of Eagle's minimum essential media (MEM) containing 10% fetal bovine serum (FBS) and antibiotic/antimycotics. The cells were plated at 250,000 per well in 8 chamber microscope slides (Nunc, Naperville, Ill.) which were pre-treated with poly-L-lysine for 10 min. The slides were incubated at 5% CO2/95% air at 37° C. Approximately 12 hours later, the medium was removed by vacuum and replaced with pre-warmed, serum-free MEM. Cells were then treated for 2-3 hrs with MEM only to wash out any estrogen effects from the serum (Winters et al. (1994) Biol. Reprod. 50 (Suppl. 1):113; Suttner et al. (1998) Biol. Reprod. 59 (Suppl.): (Accepted for publication). Following serum-free MEM treatment, cells were treated for 24 hr with (+) or (−) enantiomers of Z-BDDA or estradiol at 0. 1, 1, and 10 μM, or EtOH vehicle control in serum-free MEM. Cells were subsequently processed using an in situ apoptosis assay kit (Apotag-Plus In Situ Apoptosis Kit-Peroxidase, Edition 1.1., Oncor, Gaithersburg, Md., 1995) to study ovarian apoptosis (Suttner et al., 1998). The slides were washed in two changes of PBS for 5 min each, and then quenched in 2% hydrogen peroxide in methanol for 5 min. at room temperature. After pre-treatment with an equilibration buffer, 13 ul of Terminal deoxynucleotidyl Transferase (TdT) diluted with reaction buffer and distilled water were added, and the slides were incubated for 1 h at 37° C. in a humidified chamber. After this 1 h period, the slides were put in pre-warmed stop wash buffer in the incubator for 30 min to stop the reaction. Next, the slides were washed in three changes of PBS for 5 min. each, and the anti-digoxigenin peroxidase was placed on the slides for 30 min. in a humidified chamber at room temperature. […] The degree of apoptosis for the calorimetric apoptosis assay was quantified microscopically using an image analysis system (Optimas 5.23, Optimas Users Guide, 5th Edition, Redmond, Wash.). Ten measurements (captured images) were taken for each concentration based on a pre-determined grid. […] Percentage area of each color was then quantitated using the image analysis system. […]

[5] = system: mice; details: cited from earlier work
[6] = system: rats, cats, chicks, and guinea pigs; details: animals including rats; cited from earlier work
[7] = system: MCF-7 human mammary cancer cell line; details: human MCF-7 cells in culture; cited from earlier work
[8] = female rats, 2.5 ug/g of body weight daily, six weeks, mean ± SEM
[9] = male rats, 2.5 ug/g of body weight daily, five weeks, mean ± SEM

Compound | antioxidant activity (shift in lag time of LDL oxidation) [2] | testis histology: spermatogenesis ([3]; 0.1 μg/g daily, FIGS. 5a-f) | Prostate Weight as % Body Weight [3] | Seminal Vesicle Weight as % Body Weight [3] | Testis Weight as % Body Weight [3] | Body Weight (g) [3] | further results
CC[C@@H]1c2ccc3cc(O)ccc3c2CC[C@]1(C)C(=O)O [(−)-Z-BDDA, (−)-Z-bisdehydrodoisynolic acid] | significant antioxidant activity | halted primarily at the secondary spermatocyte phase | 0.08 ± 0.00^1 % Body Weight | 0.06 ± 0.02^4 % Body Weight | 0.31 ± 0.02^1,4 % Body Weight | 166.5 ± 4.5^1,2,4 g | Uterus/testis weight (g) ([1]; female rats (uterus), 2.5 ug/g of body weight daily, six weeks, mean ± SEM): 1.44 ± 0.34^2,3,4 g; Blood glucose [1, 8]: 95.00 ± 8.33 mg/dL; FER (food efficiency ratio) [1, 8]: 0.011 ± 0.005^1,2; Food intake [1, 8]: 675.2 ± 37.9 g; weight gain (percent weight change) ([1]; female rats, both experiments (FIGS. 2 and 3), 2.5 μg/g daily): repress weight gain slightly more than did (+)-Z-BDDA and E2; Uterus/testis weight (g) ([1]; male rats (testis), 2.5 ug/g of body weight daily, five weeks, mean ± SEM): 0.57 ± 0.04^1 g; testosterone ([1]; male rats, 2.5 μg/g daily, compared to the vehicle): less pronounced; Blood glucose (mg/dl) [1, 9]: 88.00 ± 2.00^1 mg/dl; FER (food efficiency ratio) [1, 9]: −0.01 ± 0.01^1; Prostate weight (g) [1, 9]: 0.03 ± 0.10^1 g; Food intake [1, 9]: 650.0 ± 54.3 g; testis histology: Leydig cells ([3]; 0.1 μg/g daily, FIGS. 5a-f): severely atrophied Leydig cells, the smallest of all the treatments; mean apoptosis (% area) [4]: 26.1%
O=c1c(-c2ccc(O)cc2)coc2cc(O)cc(O)c12 [genistein] | Less antioxidant activity | – | – | – | – | – | –
CC[C@H](c1ccc2cc(O)ccc2c1)C(C)(C)C(=O)O [(+)-HAA] | – | halted at round spermatid, with a few spermatogenic cells showing elongation (acrosome phase) | 0.08 ± 0.01^1 % Body Weight | 0.10 ± 0.04 % Body Weight | 0.38 ± 0.02^1,4 % Body Weight | 196.2 ± 5.2^1,4,5 g | effect on sulfate incorporation and weight gain [5]: significant depression of sulfate incorporation without the corresponding effects on weight gain
O=c1c(-c2ccc(O)cc2)coc2cc(O)ccc12 [daidzein] | Less antioxidant activity | – | – | – | – | – | –
CC[C@H](c1ccc2cc(OC)ccc2c1)C(C)(C)C(=O)O [compound 3] | – | – | – | – | – | – | estrogenic activity (estrogenicity) in animals [6]: one-fifth the estrogenicity of 2
CC[C@@H](c1ccc2cc(O)ccc2c1)C(C)(C)C(=O)O [(−)-HAA] | – | halted at round spermatid, with a few reaching cap phase | 0.08 ± 0.01^1 % Body Weight | 0.04 ± 0.00^1,4 % Body Weight | 0.31 ± 0.01^1,4 % Body Weight | 180.9 ± 4.5^1,2,4 g | activity in inhibition of weight gain and sulfate incorporation, relative to compound 2 [5]: 100 fold; MCF-7 cell proliferation (estrogenicity) [7]: highly effective; prostate histology (alveoli) ([3]; 0.1 μg/g daily, FIGS. 4a-f): largest degree of atrophy
